One data set has as its system N2O emission. As to the kind of experiment: N2O inhibition in vegetation hall over 10 days using ammonium sulfate as fertilizer. Particulars: 10 days cumulative. From the text:
N2O inhibition in vegetation hall over 10 days (cumulative values) using AS (ammonium sulfate) as fertilizer: […]

For data set [1], the system named is nitrification in soil (microbial biomass). Put plainly: Soil incubation test for inhibition of nitrification (Example 4). The format is cell-based. Particulars: n=4. As to the method:
100 g soil is filled into 500 ml plastic bottles (e.g. soil sampled from the field) and is moistened to 50% water holding capacity. The soil is incubated at 20° C. for two weeks to activate the microbial biomass. 1 ml test solution, containing the components of the mixture in the appropriate concentration (usually from 0.1 to 3% of nitrogen N), or DMSO and 10 mg nitrogen in the form of ammoniumsulfate-N is added to the soil and everything mixed well. Bottles are capped but loosely to allow air exchange. The bottles are then incubated at 20° C. for 0, 14 and 28 days.
For analysis, 300 ml of a 1% K2SO4-solution is added to the bottle containing the soil and shaken for 2 hours in a horizontal shaker at 150 rpm. Then the whole solution is filtered through a filter (Macherey-Nagel Filter MN 807%). Ammonium and nitrate content is then analyzed in the filtrate in an autoanalyzer at 550 nm (Merck, AA11).
The inhibition (NI@a specified concentration) is calculated as follows:
4 tests regarding the inhibition of nitrification were performed in each case (n=4).
The tested amounts were 0.3 and 1% by weight of component (ii) of the MOF relative to NH4—N.

The subject of data set [2] is nitrification in soil Limburgerhof (microbial community). As to the kind of experiment: Soil incubation with inhibitor mixed into ammonium sulfate nitrate melt (Example 5). Particulars: after 14 days, added to ASS melt at 125° C. The format is cell-based. As to the method: The MOF of Example 3 was tested as follows in terms of the inhibition of nitrification: The nitrification inhibition capacity was tested after incubation of soil. In the experiment 50 g soil (soil Limburgerhof with pH (CaCl2)) 6, 73% sand, 23% silt, 4% clay, which is classified according to FAO as sandy loam) was filled into 250 ml plastic bottles and was moistened to 50% water holding capacity. The soil was incubated at 20° C. for about one week prior to the experiments to activate the microbial community. Ammonium sulfate nitrate (ASS) was heated to 125° C. in presence of 4% water. After the ASS had melted, Zinc-5-Ethoxy-3-Methyl-Pyrazolate or the underlying pyrazole compound was added and was mixed in for 1 minute. Afterwards, the melted ASS was poured onto a metal plate and cooled down to room temperature. Depending on treatment, 26.3 mg the treated ASS were milled and added to the soil and everything was mixed well. […] The fertilizer amount used for the experiment was calculated to contain 5 mg nitrogen in the form of ammonium sulfate-N(NH4—N)). […] Ammonium and nitrate content is then analyzed in the filtrate using an autoanalyzer. Ammonium was quantified via an indophenol blue dye at 660 nm, and nitrate via an azo dye at 540 nm. The nitrification inhibition is expressed as % of NH4—N recovery from fertilized NH4—N-(100%) after subtraction of unfertilized control soil.

A short description of data set [3]: Evaporation of active ingredient in thermogravimetric analyzer. The class given is physicochemical. The conditions noted are these: during 1 hour at 30° C.; continuous flow of N2 gas. On the procedure:
The evaporation of 5-ethoxy-3-methyl-1H-pyrazole and the corresponding Zn MOF of 5-ethoxy-3-methyl-1H-pyrazole, i.e. Zinc-5-Ethoxy-3-Methyl-Pyrazolate, has been measured in a thermogravimetric analyzer instrument by the following procedure. A few milligrams of the test substance were positioned on the probe of the thermogravimetric analyzer, in a continuous flow of N2 gas. After equilibrating the system to 30° C., the weight of the sample was monitored over a time period of 65 minutes at a temperature of 30° C.

The mark [4] stands for this setting: 0.3 wt.-% of pyrazolate relative to NH4—N, after 14 days.
The mark [5] stands for this setting: 0.3 wt.-% of pyrazolate relative to NH4—N, after 28 days.
Setting [6] is: 1.0 wt.-% of pyrazolate relative to NH4—N, after 14 days.
The mark [7] stands for this setting: 1.0 wt.-% of pyrazolate relative to NH4—N, after 28 days.

We go through 2 molecules from patent US20240309022A1, “Metal-Organic Frameworks with Pyrazole-Based Building Blocks” (BASF SE, priority 2021, published 2024).

On to `COc1cc(C)n[nH]1` [5-Methoxy-3-Methyl-1H-Pyrazole], for which the “% Emission (N2O)” value is on record as 10.4% in the data set on N2O emission (0.3 wt.-% relative to NH4—N) and 5.0% in the data set with N2O emission (1.0 wt.-% relative to NH4—N). In addition, the “% Inhibition (N2O)” value is given as 89.6% with N2O emission (0.3 wt.-% relative to NH4—N) and 95.0% in the data set with N2O emission (1.0 wt.-% relative to NH4—N). Also, the figures for the “Emission cumulative minus background (N2O)” value with N2O emission (0.3 wt.-% relative to NH4—N) and in the data set with N2O emission (1.0 wt.-% relative to NH4—N) were 393 and 191, respectively. The “Reduction of NO3− production” value was 75 in data set [1] (setting [4]), 40 in data set [1] (setting [5]), 88 in data set [1] (setting [6]) and 74 in data set [1] (setting [7]). Moreover, the “Residual amounts of NH4” value in data set [1] (setting [4]) amounted to 70; in data set [1] (setting [5]), 34; in data set [1] (setting [6]) it was 90; in data set [1] (setting [7]), 68.
As for `CCOc1cc(C)n[nH]1` [5-ethoxy-3-methyl-1H-pyrazole], the figures for the “Residual amounts of NH4 (% of NH4—N recovery from fertilized NH4—N)” value in data set [2] (0.3 wt.-% relative to NH4—N) and in data set [2] (0.8 wt.-% relative to NH4—N) were 45.4% and 57.0%, respectively. The “% loss (evaporation of active ingredient)” value in data set [3] was 5.6%.
